Laboratory results: patent publication US20250381204A1, “A CANNABINOID MIXTURE WITH TERPENES FOR THE TREATMENT OF ANXIETY” (priority 2022, published 2025)
Where two headings read alike, the source gives them in different places.

Columns and labels:
Fish = assay: Tank diving experiments (Example 8); assay type: in vivo
Protocol: Fish were exposed to drug, either pure CBD, CBD containing terpenes, or CBD plus CBG, in a litre of water for 30 min prior to being transferred to a novel tank containing fresh fish water in the absence of drug using a net and their behaviour recorded over a 6 min period using a camera mounted to one side. The vertical position of the fish in the tank can reliably be used as a proxy for an individual's anxiety. For example, the less time a fish spends on the bottom of the tank the less anxious. The response variables were number of visits to the top half of the tank, distance from the bottom of the tank, and proportion of time spent in the bottom third of the tank. Time spent on the bottom, distance travelled and number of top half visits determining using Ethovision software (Noldus). Water was changed, tanks and fish nets cleaned between each fish.
The anxiolytic concentration of CBD was first assessed by treating the fish with 0-15 mg/L CBD.
The ratio of CBD minus terpenes:CBD plus terpenes tested was 2:0, 1.5:0.5, 1:1, 0.5:1.5 and 0:2.

5 dpf larvae = assay: Forced light/dark transition test, 10 min dark-(5 min light-5 min dark)*3-5 min dark (Example 4); assay type: in vivo, zebrafish
Protocol: • All the tests were done with 5 dpf larvae unless stated otherwise. • A forced light/dark transition test was used. (10 min dark-(5 min light-5 min dark)*3-5 min dark) • The dose response curve was made as follows; • The locomotor activity of the larvae at the last min of acclimation (min 9-10 in the assay), was taken • The mean for each larvae over this period of time was calculated • Then the mean of each condition was calculated • The means plotted are relative to the control, control was set at 1

larvae = assay: Forced light/dark transition assay screening hemp extracts, diazepam and caffeine (Example 5); assay type: in vivo, zebrafish; conditions: for response when the light is switched on (from trace): whole duration of the assay
Protocol: Our forced light/dark transition protocol was as follows. First, there was 10 minutes of total darkness (which we refer to as the baseline period; compounds were introduced at the beginning of the baseline period, and 10 minutes were allotted to allow for drug absorption and acclimation). Next, there was a period of five minutes of light exposure followed by five minutes of dark exposure, repeated three times. Finally, there was an additional five minutes of dark exposure.
A variety of statistical techniques were used to address our hypotheses about the potential anxiolytic and anxiogenic effects of four compounds. In outline: • 1) Overall models were carried out using linear mixed-effect models • 2) Deliberate pairwise comparisons between controls and dosages of interest were carried out using appropriate two-sample comparison tests
All statistical analyses were carried out in R version 3.2.2 (R core developer team). Overall models were linear mixed-effects models (LMMs), and were fitted using the Ime4 package (Bates, Machler, Bolker, & Walker, 2015). Data were transformed as indicated to fit the assumptions of LMMs. Posthoc tests were performed using the multcomp package in R. Data distributions were initially assessed visually and model diagnostics were subsequently checked to assure appropriate fits.
Comparisons between patterns of activity during the light phases (i.e. rate of recovery during light phases, which indicates a possible anxiolytic or anxiogenic effect) were performed by analysing the slope of the linear regression function of individual mean distance vs time during light phases.
For pairwise comparisons on specific concentrations, nonparametric tests are used as indicated on non-normally distributed data.

5 dpf zebrafish larvae = assay type: in vivo, Zebrafish (Danio rerio)
Protocol: Fish were bred and reared in the aquarium facility at Queen Mary University of London, licenced by the UK Home Office. Zebrafish (Danio rerio) adults from the Tuebingen wild type (TUWT) line were kept in glass breeding tanks in fish water that contain sodium bicarbonate (0.9 mM), calcium sulphate (0.05 mM) and marine salts (Sigma, Poole, UK; 0.018 g/l). Fish were maintained on a constant 14 h light: 10 h dark cycle at 28° C. They were fed 2 times a day with Zmsystems® ZM-000 high protein food particle (Tecniplast® UK. London) from 5 dpf-10 dpf, ZM-100 and paramecium from 11 dpf-14 dpf, and, ZM-200 and brineshrimp from 14 dpf-30 dpf. At one month of age, animals were transferred into the aquaria where they were fed Zmsystems® flake food and brineshrimp.
After incubation the 48-well plate was placed in a DanioVision Observation Chamber (Noldus) and the larvae were subjected to a forced dark/light transition assay while still in the compound solution. The assay consisted of a 10 min baseline period in the dark, followed by a 10 min light challenge, followed by a 15 min dark period. DanioVision Observation Chamber controlled the lighting and recorded the assay with an infrared camera (resolution, 30 frames per second (fps)). Footage obtained was processed by EthoVision XT NUMBER (Noldus). Mean distance moved was measured with 10 second intervals.
All statistical analyses were carried out in R version 3.2.2 (R core developer team reference). Data distributions and model fit were initially assessed visually. AIC values were used in model selection. Due to difference in variance between groups we fitted a linear mixed model (LMM) in the gls package (ref).
It was first assessed whether the different compounds and concentrations were associated with differences in locomotion after 30 min exposure. We subsetted the last min in the baseline and fitted an LME with mean distance moved as the response variable, compound as the fixed effect, and individual as the random effect, with a variance structure for compound.
The light challenge and dark phase were subsetted to assess if different compounds and concentrations were associated with different patterns of movement. In the light challenge the increase of movement over time was considered recovery. In the dark phase decrease of movement was considered recovery. We fitted an LME with mean distance moved (in 10 second time bins) as the response variable, the interaction between time and concentration as a fixed effect, individual as the random effect and introduced a variant structure to account for the heterogeneity in variance between drugs.

[1] = 2 mg/L CBD in combination with 0-5 mg/L CBG
[2] = 1% ethanol, 80 mg/L caffeine, 250 μg/L fluoxetine, 100 mM NaCl

CCCCCc1cc(O)c(C/C=C(\C)CCC=C(C)C)c(O)c1 [CBG, Cannabigerol]
anxiolytic / anxiogenic effect of CBG in the mixture (Fish; [1]): displays no anxiolytic effect, but may potentially have an undesirable anxiogenic effect | distance from the bottom of the tank (Fish; [1]): no significant change in the distance from the bottom of the tank with increasing CBG concentration | frequency of visits to the top half of the tank (Fish; [1]): decreased with increasing concentration of CBG | proportion of time spent in the bottom third of the tank (Fish; [1]): spend a greater proportion of time in the bottom third of the tank

CN1C(=O)CN=C(c2ccccc2)c2cc(Cl)ccc21 [diazepam]
effect on locomotor (5 dpf larvae; 5 dpf larvae, dose response): impairment diazepam has on locomotor | rate of recovery (slope) during light phases vs DMSO control (larvae; 0.25 μM): significantly higher slope, or rate of recovery | rate of recovery (slope of linear regression) during the first light phase (Kruskal-Wallis) (larvae; Experiment 1 (diazepam), all dosages): faster rate of recovery | mean distance moved over time in the light challenge vs control (larvae; Experiment 2 (diazepam), 2.5 μM, minute 10 to 20): increases movement over time faster than the control in the light challenge | mean distance moved over time in the dark period vs control (larvae; Experiment 2 (diazepam), 2.5 μM, minute 20 to 30): decreases movement over time faster than the control in the dark period | mean distance moved in the baseline period (LMM) (larvae; Experiment 2 (diazepam), minute 9 to 10): no significant difference found in mean distance moved in the baseline period | dosages with significantly lower distance moved than the control fish (Tukey post hoc) (larvae; after ~10 minutes of exposure, Experiment 1 (diazepam)): ≥ 0.25 µM | time×dosage and dosage×light phase number as predictors of mean distance moved during light phases (LMM) (larvae; light phases): Both fixed effects were significant predictors of mean distance moved | response when the light is switched on (from trace) (larvae): stops the fish moving to the bottom of the tank | anxiolytic effect (overall conclusion) (larvae; zebrafish, in vivo): anxiolytic effect

[Cl-].[Na+] [NaCl]
basal locomotion (last minute of baseline) vs DMSO (5 dpf zebrafish larvae; zebrafish, in vivo): no difference in locomotion | freezing in the light challenge vs DMSO (5 dpf zebrafish larvae; zebrafish, in vivo): froze less | movement in the beginning of the dark period / in the dark phase vs DMSO (5 dpf zebrafish larvae; zebrafish, in vivo): no difference in movement in the beginning of the dark period | rate of recovery in the dark phase (decrease of movement over time) vs DMSO (5 dpf zebrafish larvae; zebrafish, in vivo): recovers slower than DMSO | rate of recovery in the light challenge (increase of movement over time) vs DMSO (5 dpf zebrafish larvae; zebrafish, in vivo): did not recover differently from DMSO

CCO [ethanol]
behaviour in the acclimation period (5 dpf larvae; 0.25% ethanol): start moving erratically | behaviour when turning on the light (5 dpf larvae; 0.5% ethanol, most groups freeze): starts moving more than before | rate of recovery in the dark phase (decrease of movement over time) vs DMSO (5 dpf zebrafish larvae; [2]): recovers faster | rate of recovery in the light challenge (increase of movement over time) vs DMSO (5 dpf zebrafish larvae; [2]): negative impact of locomotion over time | basal locomotion (last minute of baseline) vs DMSO (5 dpf zebrafish larvae; zebrafish, in vivo): moved significantly more than DMSO | freezing in the light challenge vs DMSO (5 dpf zebrafish larvae; zebrafish, in vivo): froze less in the beginning of the light challenge | movement in the beginning of the dark period / in the dark phase vs DMSO (5 dpf zebrafish larvae; zebrafish, in vivo): moves more at the beginning of the dark period compared to DMSO

CNCCC(Oc1ccc(C(F)(F)F)cc1)c1ccccc1 (centres unmarked) [Fluoxetine, fluoxetine]
basal locomotion (last minute of baseline) vs DMSO (5 dpf zebrafish larvae; [2]): move significantly less than DMSO | movement in the beginning of the dark period / in the dark phase vs DMSO (5 dpf zebrafish larvae; [2]): move less overall in the dark phase | rate of recovery in the dark phase (decrease of movement over time) vs DMSO (5 dpf zebrafish larvae; [2]): recover less over time | rate of recovery in the light challenge (increase of movement over time) vs DMSO (5 dpf zebrafish larvae; [2]): recover less over time

Cn1c(=O)c2c(ncn2C)n(C)c1=O [caffeine]
dosage with significantly lower locomotion than control larvae (Tukey posthoc) (larvae; after ~10 minutes of exposure): 80 mg/L | dosage as predictor of mean distance moved after ~10 minutes of exposure (LMM) (larvae; last minute of baseline, dark): Dosage was a significant predictor of mean distance moved after 10 minutes of exposure | dosages significantly different from the control during light phases (Tukey posthoc pairwise comparison) (larvae; light phases): ≥ 40 mg/L | time×dosage and dosage×light phase number as predictors of mean distance moved during light phases (LMM) (larvae; light phases): Both fixed effects were significant predictors of mean distance moved | response when the light is switched on (from trace) (larvae): much the same for all doses | basal locomotion (last minute of baseline) vs DMSO (5 dpf zebrafish larvae; [2]): move significantly less than DMSO | freezing in the light challenge vs DMSO (5 dpf zebrafish larvae; [2]): froze less in the beginning of the light challenge | movement in the beginning of the dark period / in the dark phase vs DMSO (5 dpf zebrafish larvae; [2]): move less overall in the dark phase | rate of recovery in the dark phase (decrease of movement over time) vs DMSO (5 dpf zebrafish larvae; [2]): recover less over time | rate of recovery in the light challenge (increase of movement over time) vs DMSO (5 dpf zebrafish larvae; [2]): negative impact of locomotion over time

C=C(C)[C@@H]1CCC(C)=C[C@H]1c1c(O)cc(CCCCC)cc1O [CBD, Cannabidiol]
anxiolytic effect in tank diving (top half visits, distance from bottom, time in bottom third) (Fish; 0-15 mg/L CBD, 30 min exposure, 6 min recording): anxiolytic effect
